# Reference: patent US20240317706A1, “COMPOUNDS THAT MEDIATE PROTEIN DEGRADATION AND METHODS OF USE THEREOF” (Monte Rosa Therapeutics, Inc., priority 2021, published 2024)
# Legend:
# CDK2 = target: T1, CDK2 (Homo sapiens, UniProt P24941); assay: HiBiT assay (CDK2 degradation); assay type: cell-based; conditions: HEK293 clonal line with CRISPR KI HiBiT tag on CDK2, 24 hours, HiBiT Lysis Reagent
# T1 construct: HEK293 clonal lines with CRISPR KI HiBiT tag on CDK2 proteins; host or cells: HEK293 clonal line, CRISPR knock-in HiBiT-CDK2, stably expressing LgBiT
# Method: HEK293 clonal lines with CRISPR KI HiBiT tag on CDK2 proteins and stably expressing LgBiT protein were obtained from Promega (Madison, WI). Cells were plated at 5000 cells per well using Multiflo (BioTek) in 384-well white solid bottom plates (Corning, 3570BC) in 25 ul volume in DMEM media (DMEM, high glucose, HEPES, no phenol red (ThermoFisher Scientific, 21063029)) containing 10% FBS (Corning, 35-075-CV), 1% Penicillin/Streptomycin (ThermoFisher Scientific, 15140-122). Cells were incubated for 16 hours at 37° C., 5% CO2. 75 nL of a compound at 30 μM were dosed into the plate using an Echo® 650 liquid handler (Labcyte). Cells were incubated at 37° C., 5% CO2 for 24 hours. 5 ul of HiBiT Lysis Reagent (Promega, N3030) is added using Combi Multidrop (ThermoFisher Scientific), plates are incubated for 15′ at 37° C., 5% CO2 and then signal was read on a Pherastar FSX using “LUM plus” optic module.
# Analysis was performed in Scinamic (Scinamic, Cambridge, MA). Luminescence response (R) was calculated by the formula: response=100*(S−N)/(P−N) where S is the signal of the well, N and P the mean negative and positive control values respectively of the same plate. The luminescence response was then fitted in Scinamic using a 3-parameter agonist logistic fit (hillslope=1, EC50>0, top/bottom unconstrained).
# CRBN-DDB1 = CRBN-DDB1 (Homo sapiens, UniProt Q96SW2); assay: Compound binding to CRBN by HTRF assay; conditions: CRBN-DDB1 2.5 nM, Cy5-Thalidomide 100 nM, 30 min; Ki from geometric mean IC50 by Cheng-Prustoff transformation
# Method in brief: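 HTRF displacement of Cy5-thalidomide probe (100 nM) from His-CRBN-DDB1 (2.5 nM) with anti-His terbium cryptate, in HEPES/NaCl/TCEP/EDTA/Tween20 buffer. 10-point 1:3 compound series, 30 min at ambient temperature; signal normalised to DMSO and lenalidomide controls, IC50 fitted and Ki derived by Cheng-Prusoff.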
# CRBN-DDB1, sequence (Q96SW2 whole entry): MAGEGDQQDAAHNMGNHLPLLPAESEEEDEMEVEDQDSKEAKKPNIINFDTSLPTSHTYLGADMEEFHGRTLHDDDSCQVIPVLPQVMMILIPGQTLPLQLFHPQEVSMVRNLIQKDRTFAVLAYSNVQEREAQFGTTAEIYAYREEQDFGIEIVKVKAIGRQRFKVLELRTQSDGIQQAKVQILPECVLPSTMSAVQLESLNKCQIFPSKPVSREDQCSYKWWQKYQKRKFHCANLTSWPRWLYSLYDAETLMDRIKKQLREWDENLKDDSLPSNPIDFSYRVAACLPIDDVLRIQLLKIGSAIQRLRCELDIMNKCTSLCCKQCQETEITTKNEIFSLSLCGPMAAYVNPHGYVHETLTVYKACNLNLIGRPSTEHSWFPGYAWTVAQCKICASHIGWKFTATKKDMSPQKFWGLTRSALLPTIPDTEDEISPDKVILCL
# CRBN-DDB1, sequence (Q16531 whole entry partner): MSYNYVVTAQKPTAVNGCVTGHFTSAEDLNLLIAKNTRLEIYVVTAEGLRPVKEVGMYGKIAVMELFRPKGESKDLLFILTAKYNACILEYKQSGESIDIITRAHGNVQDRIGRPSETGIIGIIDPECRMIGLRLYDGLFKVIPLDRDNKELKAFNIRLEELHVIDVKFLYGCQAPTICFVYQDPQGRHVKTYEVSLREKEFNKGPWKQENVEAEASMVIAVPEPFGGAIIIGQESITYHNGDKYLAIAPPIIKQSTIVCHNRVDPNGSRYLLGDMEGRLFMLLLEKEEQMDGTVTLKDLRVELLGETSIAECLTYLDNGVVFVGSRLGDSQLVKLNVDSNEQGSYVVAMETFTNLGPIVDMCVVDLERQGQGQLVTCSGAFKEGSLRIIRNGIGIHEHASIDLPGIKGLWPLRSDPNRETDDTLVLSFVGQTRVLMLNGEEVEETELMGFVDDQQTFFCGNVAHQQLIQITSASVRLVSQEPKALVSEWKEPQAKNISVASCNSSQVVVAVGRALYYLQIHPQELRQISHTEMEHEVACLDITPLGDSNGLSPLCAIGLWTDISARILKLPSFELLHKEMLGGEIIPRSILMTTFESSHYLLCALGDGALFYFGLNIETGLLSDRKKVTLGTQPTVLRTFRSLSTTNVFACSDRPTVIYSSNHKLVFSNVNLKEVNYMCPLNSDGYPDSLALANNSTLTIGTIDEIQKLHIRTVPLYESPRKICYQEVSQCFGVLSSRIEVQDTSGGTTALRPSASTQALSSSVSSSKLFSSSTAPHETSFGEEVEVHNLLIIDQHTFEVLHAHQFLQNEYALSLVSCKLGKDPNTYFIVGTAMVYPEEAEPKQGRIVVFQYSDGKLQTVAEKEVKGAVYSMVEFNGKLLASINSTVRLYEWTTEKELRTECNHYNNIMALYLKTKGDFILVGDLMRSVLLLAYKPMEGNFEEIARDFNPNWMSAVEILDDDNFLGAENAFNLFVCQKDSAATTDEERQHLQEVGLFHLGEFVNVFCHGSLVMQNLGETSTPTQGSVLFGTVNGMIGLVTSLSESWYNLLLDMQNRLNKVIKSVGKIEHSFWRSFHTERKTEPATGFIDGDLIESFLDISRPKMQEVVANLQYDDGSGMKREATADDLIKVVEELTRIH
Dmax (CDK2),Ki (CRBN-DDB1),Structure (SMILES)
10 to 50%,100 to 1000 nM,"O=C1CCC(N2Cc3ccc(CNC(=O)OCC4CC5(CCCC5)CO4)cc3C2=O)C(=O)N1 (stereo not shown) [Compound 94, {2-oxaspiro[4.4]nonan-3-yl}methyl N-{[2-(2,6-dioxopiperidin-3-yl)-3-oxo-2,3-dihydro-1H-isoindol-5-yl]methyl}carbamate]"
10 to 50%,100 to 1000 nM,"O=C1CCC(N2Cc3ccc(CNC(=O)OCC4CC45CCC(F)(F)CC5)cc3C2=O)C(=O)N1 (stereo not shown) [Compound 95, {6,6-difluorospiro[2.5]octan-1-yl}methyl N-{[2-(2,6-dioxopiperidin-3-yl)-3-oxo-2,3-dihydro-1H-isoindol-5-yl]methyl}carbamate]"
